This experiment has as its target PLK1 (Homo sapiens, UniProt P53350). Nature of the experiment: PLK1 Inhibition Assay I (radioactive-phosphate incorporation). It counts as biochemical. The following applies: Ki(app); PLK1 Inhibition Assay I or II (table does not say which). The procedure, abridged: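 Ki(app) values came from non-linear regression of initial rates after background subtraction, with phosphopeptide measured by phosphocellulose filter binding and scintillation counting. PLK1 at 2 nM was preincubated with compound (typically from 10 μM, 2-fold dilutions) for 10 min, then run 240 min at 25° C with 350 μM [γ-33P]ATP and 450 μM peptide substrate in HEPES pH 7.5 buffer.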

This passage reports Ki results from patent US8530489B2 (Vertex Pharmaceuticals Incorporated, priority 2006, dated 2013).

A value given as a limit tells only on which side of the number the result lay.

Chain of PLK1 (P53350 whole entry): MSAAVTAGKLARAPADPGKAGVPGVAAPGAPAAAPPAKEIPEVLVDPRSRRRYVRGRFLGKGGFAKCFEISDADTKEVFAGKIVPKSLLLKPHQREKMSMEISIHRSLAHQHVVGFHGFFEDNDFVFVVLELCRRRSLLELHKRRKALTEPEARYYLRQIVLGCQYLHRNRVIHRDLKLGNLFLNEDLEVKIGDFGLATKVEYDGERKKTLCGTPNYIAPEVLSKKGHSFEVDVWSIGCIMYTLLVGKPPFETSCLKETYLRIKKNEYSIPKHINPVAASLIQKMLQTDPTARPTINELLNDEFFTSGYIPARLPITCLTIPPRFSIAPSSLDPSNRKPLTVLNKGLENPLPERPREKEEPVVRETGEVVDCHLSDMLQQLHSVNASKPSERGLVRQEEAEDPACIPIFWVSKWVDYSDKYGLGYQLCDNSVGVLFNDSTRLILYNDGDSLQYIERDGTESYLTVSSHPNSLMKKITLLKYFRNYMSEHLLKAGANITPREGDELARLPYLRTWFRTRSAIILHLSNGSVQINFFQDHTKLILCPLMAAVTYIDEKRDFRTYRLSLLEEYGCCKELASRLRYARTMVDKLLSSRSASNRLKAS

`N#Cc1cnc(N2CCC[C@@H]2CN)nc1-c1c[nH]c2ncc(C(F)(F)F)cc12` [Compound I-87, 2-((R)-2-(aminomethyl)pyrrolidin-1-yl)-4-(5-(trifluoromethyl)-1H-pyrrolo[2,3-b]pyridin-3-yl)pyrimidine-5-carbonitrile]: the Ki is over 40 nM.
In the case of `N#Cc1cnc(NC[C@H]2CCCN2)nc1-c1c[nH]c2ncc(C(F)(F)F)cc12` [Compound I-88, 2-((R)-pyrrolidin-2-ylmethylamino)-4-(5-(trifluoromethyl)-1H-pyrrolo[2,3-b]pyridin-3-yl)pyrimidine-5-carbonitrile] it was over 40 nM; in that of `N#Cc1cnc(NCC2CCN(Cc3ccccc3)CC2)nc1-c1c[nH]c2ncc(C(F)(F)F)cc12` [Compound I-89, 2-((1-benzylpiperidin-4-yl)methylamino)-4-(5-(trifluoromethyl)-1H-pyrrolo[2,3-b]pyridin-3-yl)pyrimidine-5-carbonitrile], over 40 nM; in that of `N#Cc1cnc(NCc2ccc(O)cc2)nc1-c1c[nH]c2ncc(C(F)(F)F)cc12` [Compound I-90, 4-(5-(1,1-Trifluoromethyl)-1H-pyrrolo[2,3-b]pyridin-3-yl)-2-(4-hydroxybenzylamino)pyrimidine-5-carbonitrile], 3 to 40 nM.
As for `CC(O)CNc1ncc(C#N)c(-c2c[nH]c3ncc(C(F)(F)F)cc23)n1` (stereo not shown) [Compound I-91, 2-(2-hydroxypropylamino)-4-(5-(trifluoromethyl)-1H-pyrrolo[2,3-b]pyridin-3-yl)pyrimidine-5-carbonitrile], the Ki is 3 to 40 nM.
In the case of `N#Cc1cnc(NCc2ccc(-n3cccn3)cc2)nc1-c1c[nH]c2ncc(C(F)(F)F)cc12` [Compound I-92, 2-(4-(1H-pyrazol-1-yl)benzylamino)-4-(5-(trifluoromethyl)-1H-pyrrolo[2,3-b]pyridin-3-yl)pyrimidine-5-carbonitrile] it was over 40 nM; in that of `CCCNc1ncc(C#N)c(-c2c[nH]c3ncc(C(F)(F)F)cc23)n1` [Compound I-93, 2-(propylamino)-4-(5-(trifluoromethyl)-1H-pyrrolo[2,3-b]pyridin-3-yl)pyrimidine-5-carbonitrile], 3 to 40 nM.
As for `COc1ccc(CNc2ncc(C#N)c(-c3c[nH]c4ncc(C(F)(F)F)cc34)n2)cc1Cl` [Compound I-94, 2-(3-chloro-4-methoxybenzylamino)-4-(5-(trifluoromethyl)-1H-pyrrolo[2,3-b]pyridin-3-yl)pyrimidine-5-carbonitrile], the figure is 3 to 40 nM; as for `N#Cc1cnc(NC2CCC(O)CC2)nc1-c1c[nH]c2ncc(C(F)(F)F)cc12` (stereo not shown) [Compound I-95, 2-(4-hydroxycyclohexylamino)-4-(5-(trifluoromethyl)-1H-pyrrolo[2,3-b]pyridin-3-yl)pyrimidine-5-carbonitrile], 3 to 40 nM; as for `CCC(O)CNc1ncc(C#N)c(-c2c[nH]c3ncc(C(F)(F)F)cc23)n1` (stereo not shown) [Compound I-96, 2-(2-hydroxybutylamino)-4-(5-(trifluoromethyl)-1H-pyrrolo[2,3-b]pyridin-3-yl)pyrimidine-5-carbonitrile], 3 to 40 nM.
In the case of `C[C@@H](O)CNc1ncc(C#N)c(-c2c[nH]c3ncc(C(F)(F)F)cc23)n1` [Compound I-97, 2-((R)-2-hydroxypropylamino)-4-(5-(trifluoromethyl)-1H-pyrrolo[2,3-b]pyridin-3-yl)pyrimidine-5-carbonitrile] it was 3 to 40 nM; in that of `C[C@@H](Nc1ncc(C#N)c(-c2c[nH]c3ncc(C(F)(F)F)cc23)n1)c1ccc(O)cc1` [Compound I-99, 2-((R)-1-(4-hydroxyphenyl)ethylamino)-4-(5-(trifluoromethyl)-1H-pyrrolo[2,3-b]pyridin-3-yl)pyrimidine-5-carbonitrile], under 3 nM.
Consider `CC(Nc1ncc(C#N)c(-c2c[nH]c3ncc(C(F)(F)F)cc23)n1)c1ccc(=O)[nH]c1` (stereo not shown) [Compound I-100, 2-(1-(6-oxo-1,6-dihydropyridin-3-yl)ethylamino)-4-(5-(trifluoromethyl)-1H-pyrrolo[2,3-b]pyridin-3-yl)pyrimidine-5-carbonitrile], for which the Ki was under 3 nM.
Consider `CC(=O)N1CCC(C(C)Nc2ncc(C#N)c(-c3c[nH]c4ncc(C(F)(F)F)cc34)n2)CC1` (stereo not shown) [Compound I-101, 2-(1-(1-acetylpiperidin-4-yl)ethylamino)-4-(5-(trifluoromethyl)-1H-pyrrolo[2,3-b]pyridin-3-yl)pyrimidine-5-carbonitrile], for which the Ki was under 3 nM.
In the case of `N#Cc1cnc(NC(CO)C2CCOC2)nc1-c1c[nH]c2ncc(C(F)(F)F)cc12` (stereo not shown) [Compound I-104, 2-(2-hydroxy-1-(tetrahydrofuran-3-yl)ethylamino)-4-(5-(trifluoromethyl)-1H-pyrrolo[2,3-b]pyridin-3-yl)pyrimidine-5-carbonitrile] it was over 40 nM; in that of `N#Cc1cnc(NC(CO)C2CCOCC2)nc1-c1c[nH]c2ncc(C(F)(F)F)cc12` (stereo not shown) [Compound I-105, 2-(2-hydroxy-1-(tetrahydro-2H-pyran-4-yl)ethylamino)-4-(5-(trifluoromethyl)-1H-pyrrolo[2,3-b]pyridin-3-yl)pyrimidine-5-carbonitrile], 3 to 40 nM; in that of `N#Cc1cnc(NC(CCO)C2CC2)nc1-c1c[nH]c2ncc(C(F)(F)F)cc12` (stereo not shown) [Compound I-106, 2-(1-cyclopropyl-3-hydroxypropylamino)-4-(5-(trifluoromethyl)-1H-pyrrolo[2,3-b]pyridin-3-yl)pyrimidine-5-carbonitrile], 3 to 40 nM.
With `C[C@H](CO)Nc1ncc(C#N)c(-c2c[nH]c3ncc(C(F)(F)F)cc23)n1` [Compound I-107, 2-((R)-1-hydroxypropan-2-ylamino)-4-(5-(trifluoromethyl)-1H-pyrrolo[2,3-b]pyridin-3-yl)pyrimidine-5-carbonitrile], the Ki is 3 to 40 nM.
Turning to `C[C@H](O)[C@@H](CO)Nc1ncc(C#N)c(-c2c[nH]c3ncc(C(F)(F)F)cc23)n1` [Compound I-108, 2-((2R,3S)-1,3-dihydroxybutan-2-ylamino)-4-(5-(trifluoromethyl)-1H-pyrrolo[2,3-b]pyridin-3-yl)pyrimidine-5-carbonitrile], the Ki lay within 3 to 40 nM.
Regarding `N#Cc1cnc(NCCO)nc1-c1c[nH]c2ncc(C(F)(F)F)cc12` [Compound I-109, 2-(2-hydroxyethylamino)-4-(5-(trifluoromethyl)-1H-pyrrolo[2,3-b]pyridin-3-yl)pyrimidine-5-carbonitrile], the Ki lay within 3 to 40 nM.
In the case of `COCC(Nc1ncc(C#N)c(-c2c[nH]c3ncc(C(F)(F)F)cc23)n1)C(C)C` (stereo not shown) [Compound I-110, 2-(1-methoxy-3-methylbutan-2-ylamino)-4-(5-(trifluoromethyl)-1H-pyrrolo[2,3-b]pyridin-3-yl)pyrimidine-5-carbonitrile] it was 3 to 40 nM; in that of `CC(C)(C)[C@@H](CO)Nc1ncc(C#N)c(-c2c[nH]c3ncc(C(F)(F)F)cc23)n1` [Compound I-111, 2-((S)-1-hydroxy-3,3-dimethylbutan-2-ylamino)-4-(5-(trifluoromethyl)-1H-pyrrolo[2,3-b]pyridin-3-yl)pyrimidine-5-carbonitrile], under 3 nM; in that of `CCOc1ccc(C(C)Nc2ncc(C#N)c(-c3c[nH]c4ncc(C(F)(F)F)cc34)n2)cc1` (stereo not shown) [Compound I-112, 2-(1-(4-ethoxyphenyl)ethylamino)-4-(5-(trifluoromethyl)-1H-pyrrolo[2,3-b]pyridin-3-yl)pyrimidine-5-carbonitrile], under 3 nM.
As for `N#Cc1cnc(NC(CO)c2cccnc2)nc1-c1c[nH]c2ncc(C(F)(F)F)cc12` (stereo not shown) [Compound I-113, 2-(2-hydroxy-1-(pyridin-3-yl)ethylamino)-4-(5-(trifluoromethyl)-1H-pyrrolo[2,3-b]pyridin-3-yl)pyrimidine-5-carbonitrile], the figure is over 40 nM.
As for `N#Cc1cnc(NC[C@H](O)CO)nc1-c1c[nH]c2ncc(C(F)(F)F)cc12` [Compound I-114, 2-((S)-2,3-dihydroxypropylamino)-4-(5-(trifluoromethyl)-1H-pyrrolo[2,3-b]pyridin-3-yl)pyrimidine-5-carbonitrile], the figure is 3 to 40 nM.
For the compound `N#Cc1cnc(NC[C@@H](O)CO)nc1-c1c[nH]c2ncc(C(F)(F)F)cc12` [Compound I-115, 2-((R)-2,3-dihydroxypropylamino)-4-(5-(trifluoromethyl)-1H-pyrrolo[2,3-b]pyridin-3-yl)pyrimidine-5-carbonitrile], the Ki was in the range of 3 to 40 nM.
For the compound `CC[C@@H](C)[C@@H](CO)Nc1ncc(C#N)c(-c2c[nH]c3ncc(C(F)(F)F)cc23)n1` [Compound I-116, 2-((2S,3R)-1-hydroxy-3-methylpentan-2-ylamino)-4-(5-(trifluoromethyl)-1H-pyrrolo[2,3-b]pyridin-3-yl)pyrimidine-5-carbonitrile], the Ki lay in the range of 3 to 40 nM.
As for `CN1CCC(CNc2ncc(C#N)c(-c3c[nH]c4ncc(C(F)(F)F)cc34)n2)CC1` [Compound I-117, 2-((1-methylpiperidin-4-yl)methylamino)-4-(5-(trifluoromethyl)-1H-pyrrolo[2,3-b]pyridin-3-yl)pyrimidine-5-carbonitrile], the figure is over 40 nM; as for `CCN1CCC(CNc2ncc(C#N)c(-c3c[nH]c4ncc(C(F)(F)F)cc34)n2)CC1` [Compound I-118, 2-((1-ethylpiperidin-4-yl)methylamino)-4-(5-(trifluoromethyl)-1H-pyrrolo[2,3-b]pyridin-3-yl)pyrimidine-5-carbonitrile], over 40 nM.
For `N#Cc1cnc(N[C@@H]2CC[C@H](CO)C2)nc1-c1c[nH]c2ncc(C(F)(F)F)cc12` [Compound I-119, 2-((1R,3S)-3-(hydroxymethyl)cyclopentylamino)-4-(5-(trifluoromethyl)-1H-pyrrolo[2,3-b]pyridin-3-yl)pyrimidine-5-carbonitrile], the Ki lay within 3 to 40 nM.
As for `N#Cc1cnc(NCc2cnc3[nH]ccc3c2)nc1-c1c[nH]c2ncc(C(F)(F)F)cc12` [Compound I-120, 2-((1H-pyrrolo[2,3-b]pyridin-5-yl)methylamino)-4-(5-(trifluoromethyl)-1H-pyrrolo[2,3-b]pyridin-3-yl)pyrimidine-5-carbonitrile], the figure is 3 to 40 nM.
